For the first experiment, the system named is NALL-1. Description: selective drug sensitivity score (sDSS, relative to normal bone marrow) (sDSS (score)); higher = more potent and effective on the cell line relative to normal bone marrow cells. Conditions: 72 h.
Turning to `C[C@H]1C[C@@H]2[C@H]([C@@H](O)C[C@@]3(C)[C@H]2CC[C@]3(O)C(=O)CO)[C@@]2(C)C=CC(=O)C=C12` [Methylprednisolone] (top concentration 10000 nM), the “selective drug sensitivity score” value is 24.8.

For `FC(F)(F)c1ccc(/C=C/c2nc(COc3ccc(CCCCn4ccnn4)cc3)co2)cc1` [Mubritinib] (top concentration 1000 nM), the “selective drug sensitivity score” value is -2.24.

With `COc1cc2c(cc1OC(C)C)[C@H](c1ccc(Cl)cc1)N(c1ccc(N(C)C[C@H]3CC[C@H](N4CCN(C)C(=O)C4)CC3)cc1)C(=O)C2` [NVP-CGM097] (top concentration 25000 nM), the “selective drug sensitivity score” value was -6.34.

As for `CCOc1cc2ncc(C#N)c(Nc3ccc(OCc4ccccn4)c(Cl)c3)c2cc1NC(=O)/C=C/CN(C)C` [Neratinib] (top concentration 1000 nM), the “selective drug sensitivity score” value was -0.32.

On to `COc1ncc(-c2ccc3nccc(-c4ccnnc4)c3c2)cc1NS(=O)(=O)c1ccc(F)cc1F` [Omipalisib] (top concentration 1000 nM), for which the “selective drug sensitivity score” value came out at 4.5.

As to `CN1CCN(c2cc(C(=O)Nc3ccc4c(c3)-c3c(c(C(N)=O)nn3-c3ccc(F)cc3)CC4)c(Cl)cn2)CC1` [PHA-408] (top concentration 10000 nM), the “selective drug sensitivity score” value is -0.82.

Regarding `OC[C@H]1O[C@@H](n2cnc3c2N=CNC[C@H]3O)C[C@@H]1O` [Pentostatin] (top concentration 10000 nM), the “selective drug sensitivity score” value is -0.44.

As for `CC(C)N(C[C@H]1O[C@@H](n2cnc3c(N)ncnc32)[C@H](O)[C@@H]1O)[C@H]1C[C@@H](CCc2nc3cc(C(C)(C)C)ccc3[nH]2)C1` [Pinometostat] (top concentration 1000 nM), the “selective drug sensitivity score” value turned out to be 0.

Regarding `Cc1ccc(=O)n(-c2ccccc2)c1` [Pirfenidone] (top concentration 10000 nM), the “selective drug sensitivity score” value was 0.

The test system of another experiment is NALM-16. The experiment is described as above. Conditions: 72 h.
For `CC(=O)[C@]1(O)Cc2c(O)c3c(c(O)c2[C@@H](O[C@H]2C[C@H](N)[C@H](O)[C@H](C)O2)C1)C(=O)c1ccccc1C3=O` [Idarubicin] (top concentration 1000 nM), the “selective drug sensitivity score” value is -2.56.

On to `COc1cc2nccc(Oc3ccc(NC(=O)NC4CC4)c(Cl)c3)c2cc1C(N)=O` [Lenvatinib] (top concentration 2500 nM), for which the “selective drug sensitivity score” value was -0.24.

Turning to `N#Cc1ccc(C(c2ccc(C#N)cc2)n2cncn2)cc1` [Letrozole] (top concentration 10000 nM), the “selective drug sensitivity score” value is -0.04.

Regarding `CCNCCS(=O)(=O)NC[C@@]1(c2ccccc2)SC(NC(=O)C(C)(C)C)=NN1C(=O)C(C)(C)C` [Litronesib] (top concentration 1000 nM), the “selective drug sensitivity score” value turned out to be 14.3.

Regarding `CC[C@H](C)C(=O)O[C@H]1C[C@@H](C)C=C2C=C[C@H](C)[C@H](CC[C@@H]3C[C@@H](O)CC(=O)O3)[C@H]21` [Lovastatin] (top concentration 10000 nM), the “selective drug sensitivity score” value was -0.1.

In the case of `Cn1cc(-c2cnn3c(N)c(Br)c([C@@H]4CCCNC4)nc23)cn1` [MK-8776] (top concentration 2500 nM), the “selective drug sensitivity score” value was 1.14.

On to `Cc1cnc(-c2ccccc2C(C)C)nc1NCc1ccc(-n2ccnn2)cc1` [ML323] (top concentration 10000 nM), for which the “selective drug sensitivity score” value was determined as 0.64.

On to `O=C(CCNC(=O)c1ccc(OC(F)(F)F)cc1)N[C@@H]1CCCc2ccccc21` [ML390] (top concentration 50000 nM), for which the “selective drug sensitivity score” value came out at 6.6.

Consider `CN(C)C(=N)NC(=N)N` [Metformin] (top concentration 100000 nM), for which the “selective drug sensitivity score” value was -0.02.

Consider `C[C@H]1C[C@@H]2[C@H]([C@@H](O)C[C@@]3(C)[C@H]2CC[C@]3(O)C(=O)CO)[C@@]2(C)C=CC(=O)C=C12` [Methylprednisolone] (top concentration 10000 nM), for which the “selective drug sensitivity score” value was -2.3.

As to `FC(F)(F)c1ccc(/C=C/c2nc(COc3ccc(CCCCn4ccnn4)cc3)co2)cc1` [Mubritinib] (top concentration 1000 nM), the “selective drug sensitivity score” value turned out to be 4.66.

On to `COc1cc2c(cc1OC(C)C)[C@H](c1ccc(Cl)cc1)N(c1ccc(N(C)C[C@H]3CC[C@H](N4CCN(C)C(=O)C4)CC3)cc1)C(=O)C2` [NVP-CGM097] (top concentration 25000 nM), for which the “selective drug sensitivity score” value is -4.54.

On to `CCOc1cc2ncc(C#N)c(Nc3ccc(OCc4ccccn4)c(Cl)c3)c2cc1NC(=O)/C=C/CN(C)C` [Neratinib] (top concentration 1000 nM), for which the “selective drug sensitivity score” value amounted to 1.78.

For the compound `COc1ncc(-c2ccc3nccc(-c4ccnnc4)c3c2)cc1NS(=O)(=O)c1ccc(F)cc1F` [Omipalisib] (top concentration 1000 nM), the “selective drug sensitivity score” value is 8.1.

Regarding `CN1CCN(c2cc(C(=O)Nc3ccc4c(c3)-c3c(c(C(N)=O)nn3-c3ccc(F)cc3)CC4)c(Cl)cn2)CC1` [PHA-408] (top concentration 10000 nM), the “selective drug sensitivity score” value is -4.62.

Take `OC[C@H]1O[C@@H](n2cnc3c2N=CNC[C@H]3O)C[C@@H]1O` [Pentostatin] (top concentration 10000 nM): the “selective drug sensitivity score” value is -0.44.

With `CC(C)N(C[C@H]1O[C@@H](n2cnc3c(N)ncnc32)[C@H](O)[C@@H]1O)[C@H]1C[C@@H](CCc2nc3cc(C(C)(C)C)ccc3[nH]2)C1` [Pinometostat] (top concentration 1000 nM), the “selective drug sensitivity score” value was determined as 0.

Consider `Cc1ccc(=O)n(-c2ccccc2)c1` [Pirfenidone] (top concentration 10000 nM), for which the “selective drug sensitivity score” value worked out at 0.

For a further experiment, the system named is P12-ICHIKAWA
The description is as above. Conditions: 72 h.
With `CC(=O)[C@]1(O)Cc2c(O)c3c(c(O)c2[C@@H](O[C@H]2C[C@H](N)[C@H](O)[C@H](C)O2)C1)C(=O)c1ccccc1C3=O` [Idarubicin] (top concentration 1000 nM), the “selective drug sensitivity score” value was determined as 8.24.

As to `COc1cc2nccc(Oc3ccc(NC(=O)NC4CC4)c(Cl)c3)c2cc1C(N)=O` [Lenvatinib] (top concentration 2500 nM), the “selective drug sensitivity score” value was -0.24.

As for `N#Cc1ccc(C(c2ccc(C#N)cc2)n2cncn2)cc1` [Letrozole] (top concentration 10000 nM), the “selective drug sensitivity score” value was -0.04.

Consider `CCNCCS(=O)(=O)NC[C@@]1(c2ccccc2)SC(NC(=O)C(C)(C)C)=NN1C(=O)C(C)(C)C` [Litronesib] (top concentration 1000 nM), for which the “selective drug sensitivity score” value came to 18.5.

Regarding `CC[C@H](C)C(=O)O[C@H]1C[C@@H](C)C=C2C=C[C@H](C)[C@H](CC[C@@H]3C[C@@H](O)CC(=O)O3)[C@H]21` [Lovastatin] (top concentration 10000 nM), the “selective drug sensitivity score” value worked out at 1.4.

Consider `Cn1cc(-c2cnn3c(N)c(Br)c([C@@H]4CCCNC4)nc23)cn1` [MK-8776] (top concentration 2500 nM), for which the “selective drug sensitivity score” value was -0.36.

Turning to `Cc1cnc(-c2ccccc2C(C)C)nc1NCc1ccc(-n2ccnn2)cc1` [ML323] (top concentration 10000 nM), the “selective drug sensitivity score” value was determined as 1.74.

For the compound `O=C(CCNC(=O)c1ccc(OC(F)(F)F)cc1)N[C@@H]1CCCc2ccccc21` [ML390] (top concentration 50000 nM), the “selective drug sensitivity score” value is 18.5.

Turning to `CN(C)C(=N)NC(=N)N` [Metformin] (top concentration 100000 nM), the “selective drug sensitivity score” value was -0.02.

For `C[C@H]1C[C@@H]2[C@H]([C@@H](O)C[C@@]3(C)[C@H]2CC[C@]3(O)C(=O)CO)[C@@]2(C)C=CC(=O)C=C12` [Methylprednisolone] (top concentration 10000 nM), the “selective drug sensitivity score” value is 19.8.

As to `FC(F)(F)c1ccc(/C=C/c2nc(COc3ccc(CCCCn4ccnn4)cc3)co2)cc1` [Mubritinib] (top concentration 1000 nM), the “selective drug sensitivity score” value came to 20.7.

Consider `COc1cc2c(cc1OC(C)C)[C@H](c1ccc(Cl)cc1)N(c1ccc(N(C)C[C@H]3CC[C@H](N4CCN(C)C(=O)C4)CC3)cc1)C(=O)C2` [NVP-CGM097] (top concentration 25000 nM), for which the “selective drug sensitivity score” value was -5.64.

Turning to `CCOc1cc2ncc(C#N)c(Nc3ccc(OCc4ccccn4)c(Cl)c3)c2cc1NC(=O)/C=C/CN(C)C` [Neratinib] (top concentration 1000 nM), the “selective drug sensitivity score” value was determined as 1.28.

For the compound `COc1ncc(-c2ccc3nccc(-c4ccnnc4)c3c2)cc1NS(=O)(=O)c1ccc(F)cc1F` [Omipalisib] (top concentration 1000 nM), the “selective drug sensitivity score” value was determined as 4.

Take `CN1CCN(c2cc(C(=O)Nc3ccc4c(c3)-c3c(c(C(N)=O)nn3-c3ccc(F)cc3)CC4)c(Cl)cn2)CC1` [PHA-408] (top concentration 10000 nM): the “selective drug sensitivity score” value is -0.02.

Turning to `OC[C@H]1O[C@@H](n2cnc3c2N=CNC[C@H]3O)C[C@@H]1O` [Pentostatin] (top concentration 10000 nM), the “selective drug sensitivity score” value is -0.44.

With `CC(C)N(C[C@H]1O[C@@H](n2cnc3c(N)ncnc32)[C@H](O)[C@@H]1O)[C@H]1C[C@@H](CCc2nc3cc(C(C)(C)C)ccc3[nH]2)C1` [Pinometostat] (top concentration 1000 nM), the “selective drug sensitivity score” value amounted to 0.

Consider `Cc1ccc(=O)n(-c2ccccc2)c1` [Pirfenidone] (top concentration 10000 nM), for which the “selective drug sensitivity score” value came to 0.

For the origin of these results see the supplement of paper PMC8967900.
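Note: ALL cell lines in 384-well plates, five doses spanning 10,000-fold, each plate scaled between vehicle and 100 µmol/L benzalkonium chloride controls, sDSS an adapted area-under-curve metric.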
